Data as given in US10945932B2, “Prebiotic oral care compositions containing carboxylic acids” (COLGATE-PALMOLIVE COMPANY, priority 2013, dated 2021).

Key:
Assay type in all cases: cell-based
[1] = test system: Actinomyces naeslundii; experiment: Metabolic activity, Biolog phenotype microarray; details: A naeslundii
Protocol: (§1) The extent of metabolic activity of the tested bacteria in the presence of the above-mentioned acids after 24 hours and 48 hours was investigated through a high throughput phenotype microarray system (PM) for microbial cells (Biolog Inc.). Each PM can contain up to 95 different biochemical compounds (e.g. organic acids) that may act as substrates for bacteria as well as one negative control, not containing the substrates. Microarray plates were used in which the different wells of each plate were pre-loaded (by the manufacturer, Biolog Inc.) with different organic acids to be tested. Each bacterial species was tested using a separate microarray plate. Thus, a single bacterial species was tested with a variety of organic acids on each particular plate. The microarrays are based on redox technology, using cell respiration as a universal reporter. […] The observation of this color change indicates which of the substrates improve the metabolic activity and health of the cells.
(§2) Each bacterial species was collected from blood agar plates (incubated for 48 hours anaerobically at 37° C.) and transferred to an IF-0 Base inoculation fluid (Biolog Inc.), which is a nutritionally poor medium. […] A 1:5 dilution of this suspension was prepared by mixing 3 mL of the 42% transmittance cell suspension with 15 mL of an inoculation fluid (which inoculation fluid was formed by mixing 11.6 mL sterile water, 62.5 mL IF-0 base inoculation fluid and 0.9 mL of the tetrazolium dye “Biolog Redox Dye mix D”), resulting in a final cell density which was equal to 85% transmittance using a BioRad SmartSpec 3000 Photometer. For each of the acids tested, the microarray plate (obtained from the supplier (Biolog Inc.) with acid already present in the relevant wells in powder form) was directly inoculated with 100 μL/well of this 85% transmittance cell suspension.
(§3) All plates were incubated in an anaerobic atmosphere at 37° C. Color changes were measured spectrophotometrically at 492 nm (Thermo Scientific Multiskan Ascent) at 24 hrs and 48 hrs using the same plate at both time points.
(§4) The controls were also carried out three times, as above.

[2] = test system: Actinomyces viscosus; experiment: Metabolic activity, Biolog phenotype microarray; details: A viscosus
Protocol: as §1, §2, §3, §4

[3] = test system: Aggregatibacter actinomycetemcomitans; experiment: Metabolic activity, Biolog phenotype microarray; details: A actinomycetemcomitans
Protocol: as §1, §2, §3, §4

[4] = test system: Capnocytophaga sputigena; experiment: Metabolic activity, Biolog phenotype microarray; details: C sputigena
Protocol: as §1, §2, §3, §4

[5] = test system: Fusobacterium nucleatum; experiment: Metabolic activity, Biolog phenotype microarray; details: F nucleatum
Protocol: as §1, §2, §3, §4

[6] = test system: Porphyromonas gingivalis; experiment: Metabolic activity, Biolog phenotype microarray; details: P gingivalis
Protocol: as §1, §2, §3, §4

[7] = test system: Prevotella intermedia; experiment: Metabolic activity, Biolog phenotype microarray; details: P intermedia
Protocol: as §1, §2, §3, §4

[8] = test system: Streptococcus gordonii; experiment: Metabolic activity, Biolog phenotype microarray; details: S gordonii
Protocol: as §1, §2, §3, §4

[9] = test system: Streptococcus mitis; experiment: Metabolic activity, Biolog phenotype microarray; details: S mitis
Protocol: as §1, §2, §3, §4

[10] = test system: Streptococcus mutans; experiment: Metabolic activity, Biolog phenotype microarray; details: S mutans
Protocol: as §1, §2, §3, §4

[11] = test system: Streptococcus salivarius; experiment: Metabolic activity, Biolog phenotype microarray; details: S salivarius
Protocol: as §1, §2, §3, §4

[12] = test system: Streptococcus sanguinis; experiment: Metabolic activity, Biolog phenotype microarray; details: S sanguinis
Protocol: as §1, §2, §3, §4

[13] = test system: Streptococcus sobrinus; experiment: Metabolic activity, Biolog phenotype microarray; details: S sobrinus
Protocol: as §1, §2, §3, §4

[14] = test system: Tannerella forsythia; experiment: Metabolic activity, Biolog phenotype microarray; details: T forsythia
Protocol: as §1, §2, §3, §4

[15] = test system: Veillonella parvula; experiment: Metabolic activity, Biolog phenotype microarray; details: V parvula
Protocol: as §1, §2, §3, §4

[16] = test system: beneficial oral bacteria and pathogenic oral bacteria; experiment: Metabolic activity, prebiotic effect over the whole panel; details: for prebiotic effect (metabolic activity): threshold value of 2
Protocol: as §1, §2, §3, §4

Row | Structure (SMILES) | metabolic activity, OD at 492 nm divided by OD of control (control = 1) ([1]; 24 hrs) | metabolic activity, OD at 492 nm divided by OD of control (control = 1) ([1]; 48 hrs) | metabolic activity, OD at 492 nm divided by OD of control (control = 1) ([2]; 24 hrs) | metabolic activity, OD at 492 nm divided by OD of control (control = 1) ([2]; 48 hrs) | metabolic activity, OD at 492 nm divided by OD of control (control = 1) ([3]; 24 hrs) | metabolic activity, OD at 492 nm divided by OD of control (control = 1) ([3]; 48 hrs) | metabolic activity, OD at 492 nm divided by OD of control (control = 1) ([4]; 24 hrs) | metabolic activity, OD at 492 nm divided by OD of control (control = 1) ([4]; 48 hrs) | metabolic activity, OD at 492 nm divided by OD of control (control = 1) ([5]; 24 hrs) | metabolic activity, OD at 492 nm divided by OD of control (control = 1) ([5]; 48 hrs) | metabolic activity, OD at 492 nm divided by OD of control (control = 1) ([6]; 24 hrs) | metabolic activity, OD at 492 nm divided by OD of control (control = 1) ([6]; 48 hrs) | metabolic activity, OD at 492 nm divided by OD of control (control = 1) ([7]; 24 hrs) | metabolic activity, OD at 492 nm divided by OD of control (control = 1) ([7]; 48 hrs) | metabolic activity, OD at 492 nm divided by OD of control (control = 1) ([8]; 24 hrs) | metabolic activity, OD at 492 nm divided by OD of control (control = 1) ([8]; 48 hrs) | metabolic activity, OD at 492 nm divided by OD of control (control = 1) ([9]; 24 hrs) | metabolic activity, OD at 492 nm divided by OD of control (control = 1) ([9]; 48 hrs) | metabolic activity, OD at 492 nm divided by OD of control (control = 1) ([10]; 24 hrs) | metabolic activity, OD at 492 nm divided by OD of control (control = 1) ([10]; 48 hrs) | also measured
1 | C[C@H](O)C(=O)O [L-lactic acid] | 1.6747 | 1.8440 | 1.5404 | 1.7915 | 1.7850 | 2.2055 | 1.4435 | 1.1474 | 0.8008 | 0.7884 | 0.7480 | 0.7325 | 0.9628 | 0.9344 | 0.7156 | 0.6821 | 1.0230 | 0.9098 | 0.8885 | 0.8138 | metabolic activity, OD at 492 nm divided by OD of control (control = 1) ([11]; 24 hrs): 0.9183; metabolic activity, OD at 492 nm divided by OD of control (control = 1) ([11]; 48 hrs): 0.8317; metabolic activity, OD at 492 nm divided by OD of control (control = 1) ([12]; 24 hrs): 0.9076; metabolic activity, OD at 492 nm divided by OD of control (control = 1) ([12]; 48 hrs): 0.8849; metabolic activity, OD at 492 nm divided by OD of control (control = 1) ([13]; 24 hrs): 0.8282; metabolic activity, OD at 492 nm divided by OD of control (control = 1) ([13]; 48 hrs): 0.7747; metabolic activity, OD at 492 nm divided by OD of control (control = 1) ([14]; 24 hrs): 0.8509; metabolic activity, OD at 492 nm divided by OD of control (control = 1) ([14]; 48 hrs): 0.8314; metabolic activity, OD at 492 nm divided by OD of control (control = 1) ([15]; 24 hrs): 3.4930; metabolic activity, OD at 492 nm divided by OD of control (control = 1) ([15]; 48 hrs): 3.0003; prebiotic effect (metabolic activity) ([16]; 24 hrs): exhibited prebiotic effects; speed of metabolism by beneficial versus pathogenic bacteria ([16]; value of 2 reached at 24 hrs for the beneficial but not the pathogenic bacteria): metabolized faster by the beneficial bacteria than by the pathogenic bacteria
2 | O=C(O)C[C@H](O)C(=O)O [L-malic acid] | 0.9796 | 0.9086 | 0.9803 | 1.0090 | 1.6257 | 1.9196 | 0.8764 | 0.8870 | 0.8813 | 0.8215 | 0.8367 | 0.8279 | 0.9958 | 1.0146 | 0.9161 | 0.8652 | 0.9743 | 0.8207 | 0.9627 | 0.8760 | metabolic activity, OD at 492 nm divided by OD of control (control = 1) ([11]; 24 hrs): 0.9740; metabolic activity, OD at 492 nm divided by OD of control (control = 1) ([11]; 48 hrs): 0.9426; metabolic activity, OD at 492 nm divided by OD of control (control = 1) ([12]; 24 hrs): 0.8788; metabolic activity, OD at 492 nm divided by OD of control (control = 1) ([12]; 48 hrs): 0.9018; metabolic activity, OD at 492 nm divided by OD of control (control = 1) ([13]; 24 hrs): 1.0506; metabolic activity, OD at 492 nm divided by OD of control (control = 1) ([13]; 48 hrs): 0.9898; metabolic activity, OD at 492 nm divided by OD of control (control = 1) ([14]; 24 hrs): 0.9252; metabolic activity, OD at 492 nm divided by OD of control (control = 1) ([14]; 48 hrs): 0.9462; metabolic activity, OD at 492 nm divided by OD of control (control = 1) ([15]; 24 hrs): 2.0256; metabolic activity, OD at 492 nm divided by OD of control (control = 1) ([15]; 48 hrs): 1.5012; prebiotic effect (metabolic activity) ([16]; 24 hrs): exhibited prebiotic effects
3 | COC(=O)CCC(=O)O [Mono methyl succinate, mono methyl succinate] | 0.8880 | 0.8882 | 0.9911 | 1.0314 | 0.9321 | 1.0787 | 0.8328 | 0.9842 | 0.8349 | 0.7615 | 0.7502 | 0.6747 | 1.0197 | 1.0603 | 0.8102 | 0.7556 | 1.0231 | 0.9293 | 0.9482 | 0.8864 | metabolic activity, OD at 492 nm divided by OD of control (control = 1) ([11]; 24 hrs): 0.9553; metabolic activity, OD at 492 nm divided by OD of control (control = 1) ([11]; 48 hrs): 0.8641; metabolic activity, OD at 492 nm divided by OD of control (control = 1) ([12]; 24 hrs): 0.8806; metabolic activity, OD at 492 nm divided by OD of control (control = 1) ([12]; 48 hrs): 0.8453; metabolic activity, OD at 492 nm divided by OD of control (control = 1) ([13]; 24 hrs): 0.9731; metabolic activity, OD at 492 nm divided by OD of control (control = 1) ([13]; 48 hrs): 0.9118; metabolic activity, OD at 492 nm divided by OD of control (control = 1) ([14]; 24 hrs): 0.8922; metabolic activity, OD at 492 nm divided by OD of control (control = 1) ([14]; 48 hrs): 0.8775; metabolic activity, OD at 492 nm divided by OD of control (control = 1) ([15]; 24 hrs): 2.0008; metabolic activity, OD at 492 nm divided by OD of control (control = 1) ([15]; 48 hrs): 2.0023
4 | O=C(O)CC(O)(CC(=O)O)C(=O)O [Citric acid, citric acid] | 0.8551 | 0.7965 | 0.9333 | 0.9052 | 1.3098 | 1.4736 | 0.5992 | 0.8818 | 0.7626 | 0.6603 | 0.8443 | 0.8692 | 0.9626 | 0.8872 | 0.9010 | 0.7481 | 1.0814 | 0.8953 | 1.1156 | 1.0700 | metabolic activity, OD at 492 nm divided by OD of control (control = 1) ([11]; 24 hrs): 0.9935; metabolic activity, OD at 492 nm divided by OD of control (control = 1) ([11]; 48 hrs): 0.9148; metabolic activity, OD at 492 nm divided by OD of control (control = 1) ([12]; 24 hrs): 0.8938; metabolic activity, OD at 492 nm divided by OD of control (control = 1) ([12]; 48 hrs): 0.8704; metabolic activity, OD at 492 nm divided by OD of control (control = 1) ([13]; 24 hrs): 0.9828; metabolic activity, OD at 492 nm divided by OD of control (control = 1) ([13]; 48 hrs): 0.8769; metabolic activity, OD at 492 nm divided by OD of control (control = 1) ([14]; 24 hrs): 0.9320; metabolic activity, OD at 492 nm divided by OD of control (control = 1) ([14]; 48 hrs): 0.8510; metabolic activity, OD at 492 nm divided by OD of control (control = 1) ([15]; 24 hrs): 1.2832; metabolic activity, OD at 492 nm divided by OD of control (control = 1) ([15]; 48 hrs): 2.0488; prebiotic effect (metabolic activity) ([16]; 48 hrs): exhibited prebiotic effects
5 | CC(=O)O [Acetic acid, acetic acid] | – | – | – | – | – | – | – | – | – | – | – | – | – | – | – | – | – | – | – | – | prebiotic effect (metabolic activity) ([16]; 48 hrs): exhibited prebiotic effects
